Measured values: PubChem BioAssay AID1918946 (Molecular Pharmacology Branch, DTP, NCI, 2023)
Where “and” joins values, the source holds several entries; their conditions need not be identical. Identical values can stand only once. Each block holds one compound with its values, some of them ahead of it. Calls of active or inactive are those of the source. The calls were made as follows: active = viability on the fitted dose curve at most 10% of control; inactive = the rest.

Tested on: 885512-296-R-J2-PDC complex spheroid viability
Test: Anticancer human tumor 885512-296-R-J2-PDC patient-derived breast carcinoma cell line growth inhibition
Conditions: for viability, T/C: stronger effect = lower value
Method in brief: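 Drug combinations with the LSD1 inhibitor iadademstat tested on tumor cells co-cultured as spheroids with endothelial cells and mesenchymal stem cells. Concentrations descended in half-log increments from clinical Cmax or 10 microM.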

[1] = curve of first compound, second compound 0.1 µM
[2] = curve of first compound, second compound 0.316 µM
[3] = curve of first compound, second compound 1 µM
[4] = curve of first compound, second compound 3.16 µM
[5] = curve of first compound, second compound 10 µM
[6] = second compound 0.1 µM, first compound 0.00949 µM
[7] = second compound 0.1 µM, first compound 0.03 µM
[8] = second compound 0.1 µM, first compound 0.0949 µM
[9] = second compound 0.1 µM, first compound 0.3 µM
[10] = second compound 0.1 µM, first compound 0.949 µM
[11] = second compound 0.1 µM, first compound 3 µM
[12] = second compound 0.316 µM, first compound 0.00949 µM
[13] = second compound 0.316 µM, first compound 0.03 µM
[14] = second compound 0.316 µM, first compound 0.0949 µM
[15] = second compound 0.316 µM, first compound 0.3 µM
[16] = second compound 0.316 µM, first compound 0.949 µM
[17] = second compound 0.316 µM, first compound 3 µM
[18] = second compound 1 µM, first compound 0.00949 µM
[19] = second compound 1 µM, first compound 0.03 µM
[20] = second compound 1 µM, first compound 0.0949 µM
[21] = second compound 1 µM, first compound 0.3 µM
[22] = second compound 1 µM, first compound 0.949 µM
[23] = second compound 1 µM, first compound 3 µM
[24] = second compound 3.16 µM, first compound 0.00949 µM
[25] = second compound 3.16 µM, first compound 0.03 µM
[26] = second compound 3.16 µM, first compound 0.0949 µM
[27] = second compound 3.16 µM, first compound 0.3 µM
[28] = second compound 3.16 µM, first compound 0.949 µM
[29] = second compound 3.16 µM, first compound 3 µM
[30] = second compound 10 µM, first compound 0.00949 µM
[31] = second compound 10 µM, first compound 0.03 µM
[32] = second compound 10 µM, first compound 0.0949 µM
[33] = second compound 10 µM, first compound 0.3 µM
[34] = second compound 10 µM, first compound 0.949 µM
[35] = second compound 10 µM, first compound 3 µM
[36] = second compound 0.1 µM, first compound 0.0316 µM
[37] = second compound 0.1 µM, first compound 0.1 µM
[38] = second compound 0.1 µM, first compound 0.316 µM
[39] = second compound 0.1 µM, first compound 1 µM
[40] = second compound 0.316 µM, first compound 0.0316 µM
[41] = second compound 0.316 µM, first compound 0.1 µM
[42] = second compound 0.316 µM, first compound 0.316 µM
[43] = second compound 0.316 µM, first compound 1 µM
[44] = second compound 1 µM, first compound 0.0316 µM
[45] = second compound 1 µM, first compound 0.1 µM
[46] = second compound 1 µM, first compound 0.316 µM
[47] = second compound 1 µM, first compound 1 µM
[48] = second compound 3.16 µM, first compound 0.0316 µM
[49] = second compound 3.16 µM, first compound 0.1 µM
[50] = second compound 3.16 µM, first compound 0.316 µM
[51] = second compound 3.16 µM, first compound 1 µM
[52] = second compound 10 µM, first compound 0.0316 µM
[53] = second compound 10 µM, first compound 0.1 µM
[54] = second compound 10 µM, first compound 0.316 µM
[55] = second compound 10 µM, first compound 1 µM
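For IC50 in this document: spheroids exposed to agents for 7 days before viability read.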
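For viability, T/C in this document: spheroids exposed to agents for 7 days before viability read.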

SMILES: CCN(c1cc(-c2ccc(CN3CCOCC3)cc2)cc(C(=O)NCc2c(C)cc(C)[nH]c2=O)c1C)C1CCOCC1 + NC1CC1c1ccc(-c2cccc(O)c2)cc1
IC50 [1]: 158 nM
IC50 [2]: 165 nM
IC50 [3]: 151 nM
IC50 [4]: 153 nM
IC50 [5]: 93.1 nM
viability, T/C [6]: 106%
viability, T/C [7]: 108%
viability, T/C [8]: 67.2%
viability, T/C [9]: 26.9%
viability, T/C [10]: 19.2%
viability, T/C [11]: 7.41%
viability, T/C [12]: 120%
viability, T/C [13]: 103%
viability, T/C [14]: 65.8%
viability, T/C [15]: 31.9%
viability, T/C [16]: 16.2%
viability, T/C [17]: 7.17%
viability, T/C [18]: 120%
viability, T/C [19]: 105%
viability, T/C [20]: 60.6%
viability, T/C [21]: 31.1%
viability, T/C [22]: 16.7%
viability, T/C [23]: 6.44%
viability, T/C [24]: 100%
viability, T/C [25]: 86.6%
viability, T/C [26]: 63.2%
viability, T/C [27]: 31.6%
viability, T/C [28]: 16.8%
viability, T/C [29]: 7.23%
viability, T/C [30]: 84%
viability, T/C [31]: 78.7%
viability, T/C [32]: 48.2%
viability, T/C [33]: 21.1%
viability, T/C [34]: 12.8%
viability, T/C [35]: 6.35%

IC50 (curve of compound): 4130 nM and > 10000 nM
SMILES: CC(C)c1c(-c2ccccc2)nc2c(C#N)c[nH]n2c1=O
viability, T/C (compound 0.0316 µM): 90.7% and 86%
viability, T/C (compound 0.1 µM): 106% and 89.1%
viability, T/C (compound 0.316 µM): 86.7% and 80.9%
viability, T/C (compound 1 µM): 99.3% and 81%
viability, T/C (compound 3.16 µM): 92.9% and 87.5%
outcome (compound 10 µM): active
viability, T/C (compound 10 µM): 57%

SMILES: O=C(C=Cn1cnc(-c2cc(C(F)(F)F)cc(C(F)(F)F)c2)n1)NNc1cnccn1 + NC1CCC(NC2CC2c2ccccc2)CC1
IC50 [1]: < 3.16 nM
IC50 [2]: < 3.16 nM
IC50 [3]: < 3.16 nM
IC50 [4]: < 3.16 nM
IC50 [5]: < 3.16 nM
viability, T/C (second compound 0.1 µM, first compound 0.00316 µM): 34%
viability, T/C (second compound 0.1 µM, first compound 0.01 µM): 7.13%
viability, T/C [36]: 7%
viability, T/C [37]: 5.05%
viability, T/C [38]: 5.84%
viability, T/C [39]: 8.68%
viability, T/C (second compound 0.316 µM, first compound 0.00316 µM): 36.5%
viability, T/C (second compound 0.316 µM, first compound 0.01 µM): 6.98%
viability, T/C [40]: 4.07%
viability, T/C [41]: 1.21%
viability, T/C [42]: 8.2%
viability, T/C [43]: 6.75%
viability, T/C (second compound 1 µM, first compound 0.00316 µM): 47.5%
viability, T/C (second compound 1 µM, first compound 0.01 µM): 6.6%
viability, T/C [44]: 1.46%
viability, T/C [45]: 1.03%
viability, T/C [46]: 3.55%
viability, T/C [47]: 0.74%
viability, T/C (second compound 3.16 µM, first compound 0.00316 µM): 26.8%
viability, T/C (second compound 3.16 µM, first compound 0.01 µM): 6.99%
viability, T/C [48]: 1.67%
viability, T/C [49]: 0.99%
viability, T/C [50]: 0.76%
viability, T/C [51]: 3.58%
viability, T/C (second compound 10 µM, first compound 0.00316 µM): 26.8%
viability, T/C (second compound 10 µM, first compound 0.01 µM): 7.4%
viability, T/C [52]: 1.17%
viability, T/C [53]: 0.87%
viability, T/C [54]: 2.75%
viability, T/C [55]: 0.69%

SMILES: CCc1c2c(nc3ccc(O)cc13)-c1cc3c(c(=O)n1C2)COC(=O)[C@]3(O)CC + NC1CCC(NC2CC2c2ccccc2)CC1
IC50 [1]: < 0.949 nM
IC50 [2]: < 0.949 nM
IC50 [3]: < 0.949 nM
IC50 [4]: < 0.949 nM
IC50 [5]: < 0.949 nM
viability, T/C (second compound 0.1 µM, first compound 0.000949 µM): 5.05%
viability, T/C (second compound 0.1 µM, first compound 0.003 µM): 2.28%
viability, T/C [6]: 7.01%
viability, T/C [7]: 6.9%
viability, T/C [8]: 6.49%
viability, T/C [9]: 3.96%
viability, T/C (second compound 0.316 µM, first compound 0.000949 µM): 2.42%
viability, T/C (second compound 0.316 µM, first compound 0.003 µM): 4.76%
viability, T/C [12]: 4.46%
viability, T/C [13]: 6.46%
viability, T/C [14]: 6.66%
viability, T/C [15]: 4.85%
viability, T/C (second compound 1 µM, first compound 0.000949 µM): 4.94%
viability, T/C (second compound 1 µM, first compound 0.003 µM): 2.3%
viability, T/C [18]: 1.74%
viability, T/C [19]: 1.31%
viability, T/C [20]: 1.26%
viability, T/C [21]: 3.93%
viability, T/C (second compound 3.16 µM, first compound 0.000949 µM): 1.98%
viability, T/C (second compound 3.16 µM, first compound 0.003 µM): 2.41%
viability, T/C [24]: 1.65%
viability, T/C [25]: 4.17%
viability, T/C [26]: 1.31%
viability, T/C [27]: 6.19%
viability, T/C (second compound 10 µM, first compound 0.000949 µM): 2.47%
viability, T/C (second compound 10 µM, first compound 0.003 µM): 1.92%
viability, T/C [30]: 1.39%
viability, T/C [31]: 3.6%
viability, T/C [32]: 3.36%
viability, T/C [33]: 1.14%

SMILES: CC1(C)CCC(CN2CCN(c3ccc(C(=O)NS(=O)(=O)c4ccc(NCC5CCOCC5)c([N+](=O)[O-])c4)c(Oc4cnc5[nH]ccc5c4)c3)CC2)=C(c2ccc(Cl)cc2)C1 + NC1CCC(NC2CC2c2ccccc2)CC1
IC50 [1]: 4990 nM
IC50 [2]: 4830 nM
IC50 [3]: 4900 nM
IC50 [4]: 4940 nM
IC50 [5]: 3840 nM
viability, T/C [36]: 106%
viability, T/C [37]: 109%
viability, T/C [38]: 115%
viability, T/C [39]: 98.9%
viability, T/C (second compound 0.1 µM, first compound 3.16 µM): 72.8%
viability, T/C (second compound 0.1 µM, first compound 10 µM): 15.8%
viability, T/C [40]: 112%
viability, T/C [41]: 116%
viability, T/C [42]: 120%
viability, T/C [43]: 90.1%
viability, T/C (second compound 0.316 µM, first compound 3.16 µM): 72.2%
viability, T/C (second compound 0.316 µM, first compound 10 µM): 16%
viability, T/C [44]: 110%
viability, T/C [45]: 115%
viability, T/C [46]: 116%
viability, T/C [47]: 93.4%
viability, T/C (second compound 1 µM, first compound 3.16 µM): 73.1%
viability, T/C (second compound 1 µM, first compound 10 µM): 14.7%
viability, T/C [48]: 111%
viability, T/C [49]: 107%
viability, T/C [50]: 114%
viability, T/C [51]: 98.7%
viability, T/C (second compound 3.16 µM, first compound 3.16 µM): 71%
viability, T/C (second compound 3.16 µM, first compound 10 µM): 17.4%
viability, T/C [52]: 84.3%
viability, T/C [53]: 82.8%
viability, T/C [54]: 77.9%
viability, T/C [55]: 87.4%
viability, T/C (second compound 10 µM, first compound 3.16 µM): 56.2%
viability, T/C (second compound 10 µM, first compound 10 µM): 19.9%

SMILES: CCN(c1cc(-c2ccc(CN3CCOCC3)cc2)cc(C(=O)NCc2c(C)cc(C)[nH]c2=O)c1C)C1CCOCC1 + NC1CCC(NC2CC2c2ccccc2)CC1
IC50 [1]: 1820 nM
IC50 [2]: 1740 nM
IC50 [3]: 2250 nM
IC50 [4]: 2080 nM
IC50 [5]: > 3000 nM
viability, T/C [6]: 118%
viability, T/C [7]: 135%
viability, T/C [8]: 104%
viability, T/C [9]: 117%
viability, T/C [10]: 98.6%
viability, T/C [11]: 12.3%
viability, T/C [12]: 131%
viability, T/C [13]: 114%
viability, T/C [14]: 127%
viability, T/C [15]: 94.5%
viability, T/C [16]: 79.1%
viability, T/C [17]: 26.1%
viability, T/C [18]: 135%
viability, T/C [19]: 107%
viability, T/C [20]: 122%
viability, T/C [21]: 87.2%
viability, T/C [22]: 80.2%
viability, T/C [23]: 39.9%
viability, T/C [24]: 141%
viability, T/C [25]: 125%
viability, T/C [26]: 106%
viability, T/C [27]: 102%
viability, T/C [28]: 78.3%
viability, T/C [29]: 35.8%
viability, T/C [30]: 110%
viability, T/C [31]: 95.4%
viability, T/C [32]: 85.8%
viability, T/C [33]: 82.7%
viability, T/C [34]: 78.5%
viability, T/C [35]: 55%
